# Measured values published in the NIST ThermoML archive (doi:10.1016/j.jct.2012.11.002).
# Numbers after ± are expanded uncertainties.
# Details: Liquid, Vibrating tube method
structure (smiles),measurement,setting,value
COC(=O)C(C)O (stereo not given) [methyl 2-hydroxypropanoate],mass density,"283.15 K, 100 kPa",1104.41 ± 1.1 kg/m3
same,mass density,"283.15 K, 2500 kPa",1106 ± 1.1 kg/m3
same,mass density,"283.15 K, 5000 kPa",1107.57 ± 1.1 kg/m3
same,mass density,"283.15 K, 7500 kPa",1109.14 ± 1.1 kg/m3
same,mass density,"283.15 K, 10000 kPa",1110.68 ± 1.1 kg/m3
same,mass density,"283.15 K, 20000 kPa",1116.59 ± 1.2 kg/m3
same,mass density,"283.15 K, 30000 kPa",1122.23 ± 1.2 kg/m3
same,mass density,"283.15 K, 40000 kPa",1127.45 ± 1.3 kg/m3
same,mass density,"283.15 K, 50000 kPa",1132.48 ± 1.4 kg/m3
same,mass density,"283.15 K, 60000 kPa",1137.4 ± 1.4 kg/m3
same,mass density,"288.15 K, 100 kPa",1098.86 ± 1 kg/m3
same,mass density,"288.15 K, 2500 kPa",1100.48 ± 1.1 kg/m3
same,mass density,"288.15 K, 5000 kPa",1102.13 ± 1.1 kg/m3
same,mass density,"288.15 K, 7500 kPa",1103.77 ± 1.1 kg/m3
same,mass density,"288.15 K, 10000 kPa",1105.31 ± 1.1 kg/m3
same,mass density,"288.15 K, 20000 kPa",1111.55 ± 1.2 kg/m3
same,mass density,"288.15 K, 30000 kPa",1117.27 ± 1.2 kg/m3
same,mass density,"288.15 K, 40000 kPa",1122.78 ± 1.3 kg/m3
same,mass density,"288.15 K, 50000 kPa",1127.98 ± 1.4 kg/m3
same,mass density,"288.15 K, 60000 kPa",1132.78 ± 1.4 kg/m3
same,mass density,"293.15 K, 100 kPa",1093.31 ± 1 kg/m3
same,mass density,"293.15 K, 2500 kPa",1094.99 ± 1 kg/m3
same,mass density,"293.15 K, 5000 kPa",1096.72 ± 1.1 kg/m3
same,mass density,"293.15 K, 7500 kPa",1098.35 ± 1.1 kg/m3
same,mass density,"293.15 K, 10000 kPa",1099.92 ± 1.1 kg/m3
same,mass density,"293.15 K, 20000 kPa",1106.2 ± 1.1 kg/m3
same,mass density,"293.15 K, 30000 kPa",1112.08 ± 1.2 kg/m3
same,mass density,"293.15 K, 40000 kPa",1117.65 ± 1.3 kg/m3
same,mass density,"293.15 K, 50000 kPa",1122.93 ± 1.3 kg/m3
same,mass density,"293.15 K, 60000 kPa",1128.01 ± 1.4 kg/m3
same,mass density,"298.15 K, 100 kPa",1087.76 ± 1 kg/m3
same,mass density,"298.15 K, 2500 kPa",1089.42 ± 1 kg/m3
same,mass density,"298.15 K, 5000 kPa",1091.21 ± 1 kg/m3
same,mass density,"298.15 K, 7500 kPa",1092.88 ± 1.1 kg/m3
same,mass density,"298.15 K, 10000 kPa",1094.57 ± 1.1 kg/m3
same,mass density,"298.15 K, 20000 kPa",1101.03 ± 1.1 kg/m3
same,mass density,"298.15 K, 30000 kPa",1107.23 ± 1.2 kg/m3
same,mass density,"298.15 K, 40000 kPa",1112.83 ± 1.2 kg/m3
same,mass density,"298.15 K, 50000 kPa",1118.24 ± 1.3 kg/m3
same,mass density,"298.15 K, 60000 kPa",1123.43 ± 1.4 kg/m3
same,mass density,"303.15 K, 100 kPa",1082.13 ± 1 kg/m3
same,mass density,"303.15 K, 2500 kPa",1083.92 ± 1 kg/m3
same,mass density,"303.15 K, 5000 kPa",1085.75 ± 1 kg/m3
same,mass density,"303.15 K, 7500 kPa",1087.5 ± 1 kg/m3
same,mass density,"303.15 K, 10000 kPa",1089.23 ± 1.1 kg/m3
same,mass density,"303.15 K, 20000 kPa",1095.82 ± 1.1 kg/m3
same,mass density,"303.15 K, 30000 kPa",1101.97 ± 1.2 kg/m3
same,mass density,"303.15 K, 40000 kPa",1107.9 ± 1.2 kg/m3
same,mass density,"303.15 K, 50000 kPa",1113.44 ± 1.3 kg/m3
same,mass density,"303.15 K, 60000 kPa",1118.66 ± 1.4 kg/m3
same,mass density,"308.15 K, 100 kPa",1076.53 ± 1 kg/m3
same,mass density,"308.15 K, 2500 kPa",1078.32 ± 1 kg/m3
same,mass density,"308.15 K, 5000 kPa",1080.19 ± 1 kg/m3
same,mass density,"308.15 K, 7500 kPa",1082 ± 1 kg/m3
same,mass density,"308.15 K, 10000 kPa",1083.79 ± 1 kg/m3
same,mass density,"308.15 K, 20000 kPa",1090.68 ± 1.1 kg/m3
same,mass density,"308.15 K, 30000 kPa",1097.03 ± 1.1 kg/m3
same,mass density,"308.15 K, 40000 kPa",1102.99 ± 1.2 kg/m3
same,mass density,"308.15 K, 50000 kPa",1108.63 ± 1.3 kg/m3
same,mass density,"308.15 K, 60000 kPa",1114.02 ± 1.3 kg/m3
same,mass density,"313.15 K, 100 kPa",1070.85 ± 0.98 kg/m3
same,mass density,"313.15 K, 2500 kPa",1072.76 ± 0.99 kg/m3
same,mass density,"313.15 K, 5000 kPa",1074.65 ± 1 kg/m3
same,mass density,"313.15 K, 7500 kPa",1076.52 ± 1 kg/m3
same,mass density,"313.15 K, 10000 kPa",1078.39 ± 1 kg/m3
same,mass density,"313.15 K, 20000 kPa",1085.28 ± 1.1 kg/m3
same,mass density,"313.15 K, 30000 kPa",1091.84 ± 1.1 kg/m3
same,mass density,"313.15 K, 40000 kPa",1097.99 ± 1.2 kg/m3
same,mass density,"313.15 K, 50000 kPa",1103.74 ± 1.2 kg/m3
same,mass density,"313.15 K, 60000 kPa",1109.24 ± 1.3 kg/m3
same,mass density,"318.15 K, 100 kPa",1065.11 ± 0.97 kg/m3
same,mass density,"318.15 K, 2500 kPa",1067.04 ± 0.98 kg/m3
same,mass density,"318.15 K, 5000 kPa",1068.97 ± 0.99 kg/m3
same,mass density,"318.15 K, 7500 kPa",1070.94 ± 1 kg/m3
same,mass density,"318.15 K, 10000 kPa",1072.77 ± 1 kg/m3
same,mass density,"318.15 K, 20000 kPa",1080.09 ± 1.1 kg/m3
same,mass density,"318.15 K, 30000 kPa",1086.77 ± 1.1 kg/m3
same,mass density,"318.15 K, 40000 kPa",1093.08 ± 1.2 kg/m3
same,mass density,"318.15 K, 50000 kPa",1098.93 ± 1.2 kg/m3
same,mass density,"318.15 K, 60000 kPa",1104.49 ± 1.3 kg/m3
same,mass density,"323.15 K, 100 kPa",1059.39 ± 0.96 kg/m3
same,mass density,"323.15 K, 2500 kPa",1061.4 ± 0.97 kg/m3
same,mass density,"323.15 K, 5000 kPa",1063.43 ± 0.98 kg/m3
same,mass density,"323.15 K, 7500 kPa",1065.44 ± 0.99 kg/m3
same,mass density,"323.15 K, 10000 kPa",1067.34 ± 1 kg/m3
same,mass density,"323.15 K, 20000 kPa",1074.67 ± 1.1 kg/m3
same,mass density,"323.15 K, 30000 kPa",1081.41 ± 1.1 kg/m3
same,mass density,"323.15 K, 40000 kPa",1088 ± 1.2 kg/m3
same,mass density,"323.15 K, 50000 kPa",1094.04 ± 1.2 kg/m3
same,mass density,"323.15 K, 60000 kPa",1099.76 ± 1.3 kg/m3
same,mass density,"328.15 K, 100 kPa",1053.63 ± 0.95 kg/m3
same,mass density,"328.15 K, 2500 kPa",1055.7 ± 0.96 kg/m3
same,mass density,"328.15 K, 5000 kPa",1057.77 ± 0.97 kg/m3
same,mass density,"328.15 K, 7500 kPa",1059.74 ± 0.98 kg/m3
same,mass density,"328.15 K, 10000 kPa",1061.8 ± 0.99 kg/m3
same,mass density,"328.15 K, 20000 kPa",1069.41 ± 1 kg/m3
same,mass density,"328.15 K, 30000 kPa",1076.5 ± 1.1 kg/m3
same,mass density,"328.15 K, 40000 kPa",1083.15 ± 1.1 kg/m3
same,mass density,"328.15 K, 50000 kPa",1089.4 ± 1.2 kg/m3
same,mass density,"328.15 K, 60000 kPa",1095.07 ± 1.3 kg/m3
same,mass density,"333.15 K, 100 kPa",1047.83 ± 0.94 kg/m3
same,mass density,"333.15 K, 2500 kPa",1049.97 ± 0.94 kg/m3
same,mass density,"333.15 K, 5000 kPa",1052.16 ± 0.95 kg/m3
same,mass density,"333.15 K, 7500 kPa",1054.23 ± 0.96 kg/m3
same,mass density,"333.15 K, 10000 kPa",1056.23 ± 0.97 kg/m3
same,mass density,"333.15 K, 20000 kPa",1064.05 ± 1 kg/m3
same,mass density,"333.15 K, 30000 kPa",1071.33 ± 1.1 kg/m3
same,mass density,"333.15 K, 40000 kPa",1078.01 ± 1.1 kg/m3
same,mass density,"333.15 K, 50000 kPa",1084.39 ± 1.2 kg/m3
same,mass density,"333.15 K, 60000 kPa",1090.37 ± 1.2 kg/m3
same,mass density,"338.15 K, 100 kPa",1042 ± 0.92 kg/m3
same,mass density,"338.15 K, 2500 kPa",1044.15 ± 0.93 kg/m3
same,mass density,"338.15 K, 5000 kPa",1046.35 ± 0.94 kg/m3
same,mass density,"338.15 K, 7500 kPa",1048.52 ± 0.95 kg/m3
same,mass density,"338.15 K, 10000 kPa",1050.63 ± 0.96 kg/m3
same,mass density,"338.15 K, 20000 kPa",1058.63 ± 1 kg/m3
same,mass density,"338.15 K, 30000 kPa",1066.13 ± 1.1 kg/m3
same,mass density,"338.15 K, 40000 kPa",1073.12 ± 1.1 kg/m3
same,mass density,"338.15 K, 50000 kPa",1079.74 ± 1.2 kg/m3
same,mass density,"338.15 K, 60000 kPa",1085.76 ± 1.2 kg/m3
